Reference: PubChem BioAssay (NCI)
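Cells were grown in 96-well plates and exposed to each compound for 48 hours at five concentrations; endpoints were interpolated linearly between bracketing concentrations, or set to the highest concentration if not reached. GI50: concentration for 50% inhibition of growth. The concentration for full growth arrest is given as TGI.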

What was measured:
Test in all cases: DTP human tumour cell line panel, 48 h; in the data active means GI50 below about 0.43 µM; inactive means the rest
[1] = system: CAKI-1 renal
[2] = system: HL-60(TB) leukemia
[3] = system: LOX IMVI melanoma
[4] = system: RPMI-8226 leukemia
[5] = system: SF-268 CNS
[6] = system: OVCAR-4 ovarian
[7] = system: SR leukemia
[8] = system: EKVX NSCLC
[9] = system: OVCAR-8 ovarian
[10] = system: NCI-H460 lung
[11] = system: DU-145 prostate
[12] = system: OVCAR-3 ovarian
[13] = system: HOP-92 NSCLC
[14] = system: MDA-MB-231 breast
[15] = system: SK-MEL-28 melanoma
[16] = system: KM12 colon
[17] = system: NCI-H23 lung
[18] = system: NCI/ADR-RES ovarian
[19] = system: A498 renal
[20] = system: UACC-257 melanoma
[21] = system: ACHN renal
[22] = system: BT-549 breast
[23] = system: MCF7 breast
[24] = system: SK-OV-3 ovarian
[25] = system: UO-31 renal
[26] = system: 786-0 renal
[27] = system: M14 melanoma
[28] = system: SNB-19 CNS
[29] = system: PC-3 prostate
[30] = system: HCT-15 colon
[31] = system: RXF 393 renal
[32] = system: UACC-62 melanoma
[33] = system: IGROV1 ovarian
[34] = system: SW-620 colon
[35] = system: OVCAR-5 ovarian
[36] = system: HT29 colon
[37] = system: SF-539 CNS
[38] = system: HCT-116 colon
[39] = system: SNB-75 CNS
[40] = system: MDA-MB-435
[41] = system: HCC-2998 colon
[42] = system: SK-MEL-2 melanoma
[43] = system: MALME-3M melanoma
[44] = system: SN12C renal
[45] = system: CCRF-CEM leukemia
[46] = system: NCI-H226 lung
[47] = system: K-562 leukemia
[48] = system: U251 CNS
[49] = system: T-47D breast
[50] = system: MOLT-4 leukemia
[51] = system: NCI-H522 lung
[52] = system: TK-10 renal
[53] = system: HOP-62 NSCLC
[54] = system: SF-295 CNS
[55] = system: SK-MEL-5 melanoma
[56] = system: COLO 205 colon
[57] = system: A549 NSCLC
[58] = system: HS 578T breast

C#CCn1cccc1CNc1ccc(OC)cc1
> 100 µM: TGI [1] | TGI [2] | TGI [3] | TGI [4] | TGI [5] | TGI [6] | TGI [7] | TGI [8] | TGI [9] | TGI [10] | TGI [11] | TGI [12] | TGI [13] | TGI [14] | TGI [15] | TGI [16] | TGI [17] | TGI [18] | TGI [19] | TGI [20] | TGI [21] | TGI [22] | TGI [23] | TGI [24] | TGI [25] | TGI [26] | TGI [27] | TGI [28] | TGI [29] | TGI [30] | TGI [31] | TGI [32] | TGI [33] | TGI [34] | TGI [35] | TGI [36] | TGI [37] | TGI [38] | TGI [39] | TGI [40] | TGI [41] | TGI [42] | TGI [43] | TGI [44] | TGI [45] | TGI [46] | TGI [47] | TGI [48] | TGI [49] | TGI [50] | TGI [51] | TGI [52] | TGI [53] | TGI [54] | TGI [55] | TGI [56] | TGI [57] | TGI [58]
inactive: GI50 [1] 50 µM | GI50 [2] 34.6 µM | GI50 [3] 56.9 µM | GI50 [4] 25 µM | GI50 [5] > 100 µM | GI50 [6] 28.7 µM | GI50 [7] > 100 µM | GI50 [8] 25.5 µM | GI50 [9] > 100 µM | GI50 [10] > 100 µM | GI50 [11] > 100 µM | GI50 [12] 64.4 µM | GI50 [13] 2.94 µM | GI50 [14] > 100 µM | GI50 [15] > 100 µM | GI50 [16] 51.7 µM | GI50 [17] 46.4 µM | GI50 [18] > 100 µM | GI50 [19] 8.54 µM | GI50 [20] 45.5 µM | GI50 [21] 97.2 µM | GI50 [22] 57 µM | GI50 [23] 79.6 µM | GI50 [24] > 100 µM | GI50 [25] 39.1 µM | GI50 [26] > 100 µM | GI50 [27] 82 µM | GI50 [28] > 100 µM | GI50 [29] 16 µM | GI50 [30] > 100 µM | GI50 [31] > 100 µM | GI50 [32] 74.1 µM | GI50 [33] 53.7 µM | GI50 [34] > 100 µM | GI50 [35] > 100 µM | GI50 [36] > 100 µM | GI50 [37] > 100 µM | GI50 [38] 75.7 µM | GI50 [39] > 100 µM | GI50 [40] 78.9 µM | GI50 [41] > 100 µM | GI50 [42] > 100 µM | GI50 [43] > 100 µM | GI50 [44] > 100 µM | GI50 [45] 41 µM | GI50 [46] > 100 µM | GI50 [47] 44.6 µM | GI50 [48] > 100 µM | GI50 [49] 37.8 µM | GI50 [50] > 100 µM | GI50 [51] 41.6 µM | GI50 [52] > 100 µM | GI50 [53] > 100 µM | GI50 [54] > 100 µM | GI50 [55] 67.8 µM | GI50 [56] > 100 µM | GI50 [57] > 100 µM | GI50 [58] > 100 µM

CC(Nc1c(C#N)cnc2ccc(-c3cncc(O)c3)cc12)c1ccccc1 (stereo not drawn)
9.49 µM: TGI [6]
45.6 µM: TGI [20]
6.68 µM: TGI [44]
13.8 µM: TGI [49]
7.66 µM: TGI [28]
15.4 µM: TGI [9]
2.57 µM: TGI [55]
17.1 µM: TGI [48]
36.1 µM: TGI [56]
11 µM: TGI [37]
50 µM: TGI [52]
12 µM: TGI [5]
10.2 µM: TGI [23]
3.91 µM: TGI [33]
13.2 µM: TGI [46]
inactive: GI50 [1] 2.24 µM | GI50 [2] 4.22 µM | GI50 [3] 1.31 µM | GI50 [5] 1.99 µM | GI50 [6] 1.59 µM | GI50 [7] 2.26 µM | GI50 [8] 2.07 µM | GI50 [9] 1.83 µM | GI50 [10] 2.57 µM | GI50 [11] 1.48 µM | GI50 [12] 1.05 µM | GI50 [14] 1.67 µM | GI50 [15] 1.86 µM | GI50 [16] 3.09 µM | GI50 [17] 1.86 µM | GI50 [18] 3.36 µM | GI50 [19] 2.72 µM | GI50 [20] 4.32 µM | GI50 [21] 1.4 µM | GI50 [22] 0.547 µM | GI50 [23] 1.91 µM | GI50 [24] 3.38 µM | GI50 [26] 2.74 µM | GI50 [27] 2.08 µM | GI50 [28] 1.9 µM | GI50 [29] 1.65 µM | GI50 [30] 1.69 µM | GI50 [32] 1.7 µM | GI50 [33] 0.948 µM | GI50 [34] 3.56 µM | GI50 [35] 4.3 µM | GI50 [36] 18.1 µM | GI50 [37] 2.14 µM | GI50 [38] 2.4 µM | GI50 [39] 0.961 µM | GI50 [40] 2.94 µM | GI50 [41] 3.73 µM | GI50 [42] 2.03 µM | GI50 [44] 0.721 µM | GI50 [45] 2.4 µM | GI50 [46] 1.99 µM | GI50 [47] 2.51 µM | GI50 [48] 1.88 µM | GI50 [49] 1.68 µM | GI50 [50] 2.11 µM | GI50 [51] 2.31 µM | GI50 [52] 4.45 µM | GI50 [53] 2.39 µM | GI50 [54] 2.87 µM | GI50 [55] 1.24 µM | GI50 [56] 14.9 µM | GI50 [57] 3.57 µM | GI50 [58] 1.08 µM
7.88 µM: TGI [17]
3.4 µM: TGI [43]
30.7 µM: TGI [35]
11.7 µM: TGI [54]
11.4 µM: TGI [10] | TGI [34]
47.3 µM: TGI [57]
18 µM: TGI [19]
8.51 µM: TGI [3]
12.6 µM: TGI [8]
10.6 µM: TGI [11]
6.44 µM: TGI [42]
11.9 µM: TGI [14]
11.6 µM: TGI [27]
16 µM: TGI [53]
4.82 µM: TGI [58]
12.2 µM: TGI [16]
10.8 µM: TGI [15]
6.02 µM: TGI [13]
13.5 µM: TGI [1] | TGI [51]
5.61 µM: TGI [25]
23.5 µM: TGI [18]
17.6 µM: TGI [39]
5.84 µM: TGI [12]
4.16 µM: TGI [32]
12.4 µM: TGI [38]
10.4 µM: TGI [26]
> 100 µM: TGI [2] | TGI [7] | TGI [29] | TGI [36] | TGI [45] | TGI [47] | TGI [50]
4.54 µM: TGI [22]
10.7 µM: TGI [21] | TGI [24]
15.5 µM: TGI [40]
14.8 µM: TGI [41]
11.5 µM: TGI [30]
active: GI50 [13] 0.409 µM | GI50 [25] 0.408 µM | GI50 [43] 0.407 µM
